Literature values as cited in US20080317725A1, “COMPOSITIONS AND METHODS OF TREATING CHRONIC KIDNEY DISEASE” (priority 2007, published 2008).

Experiments:
[1] = administered in large doses
[2] = test system: subjects undergoing dialysis; details: vitamin A intake of about 15,000 IU

Question: Which side effect [1] does the source give for `CC(=O)N[C@@H](CS)C(=O)O` [NAC, N-acetyl cysteine] here?
Answer: Its side effect is “cause nausea”.

Question: With `C=C1CC[C@H](O)C/C1=C/C=C1\CCC[C@]2(C)[C@@H]([C@H](C)/C=C/[C@H](C)C(C)C)CC[C@@H]12` [vitamin D2, ergocalciferol] as the compound, how does the “vitamin D activity in humans relative to vitamin D3” value (humans) read?
Answer: Its value is “about 1.7 times less than D3”.

Question: With vitamin A as the compound, how does the “toxicity of vitamin A intake” value [2] read?
Answer: Its value is “produce vitamin A toxicity and correlate with hypercalcaemia”.
